Our source for the melting point, IC50 and CC50 values is US20010003744A1, “Therapeutic compounds” (priority 1994, published 2001).

As a reminder, the melting point is the temperature of the solid-liquid transition. The term IC50 denotes the concentration that gives 50% inhibition. Read a low IC50 as greater potency. For orientation: CC50 means the concentration giving 50% cytotoxicity.

Data set [1] concerns HCMV strain AD169. Description: Human Cytomegalovirus (HCMV) assay, HCMV DNA hybridization. It counts as cell-based. Conditions: HCMV strain AD169 on MRC5 cells, 5 days, HCMV DNA by blotting and hybridization. As for the experimental part:
(§1) HCMV strain AD169 was grown on monolayers of human embryonic lung cells (MRC5 cells) in 96 well plates. After infection of the cells at a ratio of approximately 0.01 infectious virus particles per cell, the compounds to be tested were added to selected wells at six different concentrations, each in triplicate. The same concentrations of compound were also applied to wells containing monolayers of uninfected cells in order to assess compound cytotoxicity. The plates were incubated for 5 days, and the minimum cytotoxic dose was estimated from microscopic examination. The IC50 for antiviral effect was estimated from measurements of HCMV DNA in each well by blotting and quantitive specific DNA hybridization, similar to the method of Gadler. (Antimicrob. Agents Chemother. 1983, 24, 370-374).

Data set [2] can be described thus: Compound cytotoxicity on uninfected MRC5 monolayers, microscopic examination. It counts as cell-based, human. The following applies: human, uninfected MRC5 cell monolayers (human embryonic lung cells); uninfected MRC5 cells, 5 days, estimated from microscopic examination; read-out: MRC5 tox CC50. As for the experimental part: as §1
For data set [3], the system named is MRC5 cells. Described as above. It counts as cell-based, human. As for the experimental part:
as §1

`CC(=O)OC[C@@H]1O[C@H](n2c(Br)nc3cc(Cl)c(Cl)cc32)[C@@H](OC(C)=O)[C@H]1OC(C)=O` [Example 1, 2-Bromo-5,6-dichloro-1-(2,3,5-tri-O-acetyl-beta-L-ribofuranosyl)-1H-benzimidazole]: the melting point is below 65 °C.
The same measure, in the same setting: to `OC[C@@H]1O[C@H](n2c(Br)nc3cc(Cl)c(Cl)cc32)[C@@H](O)[C@H]1O` [Example 2, 2-Bromo-5,6-dichloro-1-(beta-L-ribofuranosyl)-1H-benzimidazole] belongs 169 °C.
On to `C=CCNc1nc2cc(Cl)c(Cl)cc2n1[C@H]1O[C@@H](CO)[C@H](O)[C@@H]1O` [Example 4, 2-(Allylamino)-5,6-dichloro-1-(beta-L-ribofuranosyl)-1H-benzimidazole], for which the melting point was 220 °C (dec.). The compound further came in with an IC50 in data set [1] (Human betaherpesvirus 5, 120 h) of 0.91 to 2.5 µM. Further, the CC50 at 5 days in data set [2] is 100 µM.
Regarding `CC(C)Nc1nc2cc(Cl)c(Cl)cc2n1[C@H]1O[C@@H](CO)[C@H](O)[C@@H]1O` [Example 5, 5,6-Dichloro-2-(isopropylamino)-1-(beta-L-ribofuranosyl)-1H-benzimidazole], the IC50 in data set [1] (Human betaherpesvirus 5, 120 h) lay within 0.03 to 0.05 µM. In data set [2], the CC50 at 5 days was 100 µM.
For the compound `OC[C@@H]1O[C@H](n2c(NC3CCCC3)nc3cc(Cl)c(Cl)cc32)[C@@H](O)[C@H]1O` [Example 6, 2-(Cyclopentylamino)-5,6-dichloro-1-(beta-L-ribofuranosyl)-1H-benzimidazole], the melting point stood at 140 °C.
For `OC[C@@H]1O[C@H](n2c(NCc3ccccc3)nc3cc(Cl)c(Cl)cc32)[C@@H](O)[C@H]1O` [Example 7, 2-(Benzylamino)-5,6-dichloro-1-(beta-L-ribofuranosyl)-1H-benzimidazole], the melting point was found to be 123 °C.
With `OC[C@@H]1O[C@H](n2c(N3CCC3)nc3cc(Cl)c(Cl)cc32)[C@@H](O)[C@H]1O` [Example 8, 2-Azetidino-5,6-dichloro-1-(beta-L-ribofuranosyl)-1H-benzimidazole], the IC50 in data set [1] amounted to 41 µM. The midpoint of cytotoxicity in data set [3], the CC50, lay at 100 µM.
Consider `C#CCNc1nc2cc(Cl)c(Cl)cc2n1[C@H]1O[C@@H](CO)[C@H](O)[C@@H]1O` [Example 9, 5,6-Dichloro-2-(propargylamino)-1-(beta-L-ribofuranosyl)-1H-benzimidazole], for which the melting point was 182 to 184 °C.
`CCCNc1nc2cc(Cl)c(Cl)cc2n1[C@H]1O[C@@H](CO)[C@H](O)[C@@H]1O` [Example 10, 5,6-Dichloro-2-(n-propylamino)-1-(beta-L-ribofuranosyl)-1H-benzimidazole] yielded a melting point of 231 to 233 °C. The compound also returned an IC50 in data set [1] (Human betaherpesvirus 5, 120 h) of 1.1 to 1.3 µM. For the same compound, the CC50 at 5 days in data set [2] was 100 µM.
The compound `CC(C)CNc1nc2cc(Cl)c(Cl)cc2n1[C@H]1O[C@@H](CO)[C@H](O)[C@@H]1O` [Example 11, 5,6-Dichloro-2-(isobutylamino)-1-(beta-L-ribofuranosyl)-1H-benzimidazole] yielded a melting point of 136 °C.
As to `OCCNc1nc2cc(Cl)c(Cl)cc2n1[C@H]1O[C@@H](CO)[C@H](O)[C@@H]1O` [Example 12, 2-((5,6-Dichloro-1-(beta-L-ribofuranosyl)-1H-benzimidazol-2-yl)amino)ethanol], in data set [1] (Human betaherpesvirus 5, 120 h), the IC50 fell in the range of 3.5 to 5.8 µM. Moreover, the CC50 at 5 days in data set [2] was 100 µM.
Regarding `CCCCNc1nc2cc(Cl)c(Cl)cc2n1[C@H]1O[C@@H](CO)[C@H](O)[C@@H]1O` [Example 18, 2-(n-Butylamino)-5,6-dichloro-1-(beta-L-ribofuranosyl)-1H-benzimidazole], the melting point was 220 to 222 °C.
Still for that read-out and setting: the same measure for `CCC(C)Nc1nc2cc(Cl)c(Cl)cc2n1[C@H]1O[C@@H](CO)[C@H](O)[C@@H]1O` (stereo partly drawn) [Example 19, 2-(sec-Butylamino)-5,6-dichloro-1-(beta-L-ribofuranosyl)-1H-benzimidazole]: 121 to 122 °C.
In the case of `OC[C@@H]1O[C@H](n2c(NC3CCC3)nc3cc(Cl)c(Cl)cc32)[C@@H](O)[C@H]1O` [Example 20, 2-(Cyclobutylamino)-5,6-dichloro-1-(beta-L-ribofuranosyl)-1H-benzimidazole], the melting point was 220 to 221 °C.
On the same count and under the same terms, to `OC[C@@H]1O[C@H](n2c(NCCN3CCCC3)nc3cc(Cl)c(Cl)cc32)[C@@H](O)[C@H]1O` [Example 22, 5,6-Dichloro-2-((2-(1-pyrrolidinyl)ethyl)amino)-1-(beta-L-ribofuranosyl)-1H-benzimidazole] belongs 123 to 124 °C; to `OC[C@@H]1O[C@H](n2c(NCC3CC3)nc3cc(Cl)c(Cl)cc32)[C@@H](O)[C@H]1O` [Example 23, 2-((Cyclopropylmethyl)amino)-5,6-dichloro-1-(beta-L-ribofuranosyl)-1H-benzimidazole], 229 to 230 °C.
Compound `CC(C)(C)Nc1nc2cc(Cl)c(Cl)cc2n1[C@H]1O[C@@H](CO)[C@H](O)[C@@H]1O` [Example 24, 2-(tert-Butylamino)-5,6-dichloro-1-(beta-L-ribofuranosyl)-1H-benzimidazole] yielded a melting point of 118 to 120 °C.
`CC(C)(C)Nc1nc2cc(Cl)c(Cl)cc2[nH]1` [Example 26, 2-(tert-Butylamino)-5,6-dichloro-1H-benzimidazole]: the melting point was in the range of 219 to 221 °C.
With `Nc1nc2cc(Cl)c(Cl)cc2n1[C@H]1O[C@@H](CO)[C@H](O)[C@@H]1O` [Example 27, 2-Amino-5,6-dichloro-1-(beta-L-ribofuranosyl)-1H-benzimidazole], the melting point was in the range of 110 to 112 °C.
Consider `CNc1nc2cc(Cl)c(Cl)cc2n1[C@H]1O[C@@H](CO)[C@H](O)[C@@H]1O` [Example 33, 5,6-Dichloro-2-(methylamino)-1-(beta-L-ribofuranosyl)-1H-benzimidazole], for which the melting point lay in the range of 238 to 240 °C.
Compound `CCNc1nc2cc(Cl)c(Cl)cc2n1[C@H]1O[C@@H](CO)[C@H](O)[C@@H]1O` [Example 34, 5,6-Dichloro-2-(ethylamino)-1-(beta-L-ribofuranosyl)-1H-benzimidazole] returned a melting point of 155 to 157 °C. The compound also registered an IC50 in data set [1] (Human betaherpesvirus 5, 120 h) of 0.75 to 0.85 µM. The CC50 at 5 days in data set [2] is 100 µM.
For the compound `OC[C@@H]1O[C@@H](n2c(NC3CC3)nc3cc(Cl)c(Cl)cc32)[C@@H](O)[C@H]1O` [Example 35, 2-Cyclopropylamino-5,6-dichloro-1-(alpha-L-ribofuranosyl)-1H-benzimidazole], the melting point was in the range of 140 to 141 °C.
